Reference: patent US20260234351A1, “ANTIMICROBIAL POLYMER FOAMS COMPRISING A SYNERGISTIC BLEND OF COMPONENTS” (Cupron Performance Additives, Inc., priority 2023, published 2026)

Tested on: E. coli (ATCC 8739)
Assay: Zone of Inhibition (ZOI), sample pellets on agar
Conditions: for diameter of the ZOI: pellets with 20 wt % cellulose binder (Tables 1 and 2)
[1] = E. coli, 24 h incubation at 37° C.

Procedure: Zone of Inhibition (ZOI). […] The cultures were streaked on Luria Agar (LB) plates and incubated overnight at 37° C. […] 50 μL of this stock suspension was spread homogeneously on a trypticase soy agar (TSA) plate (diameter 10 cm).

Zinc borate
diameter of the ZOI [1]: No ZOI | antimicrobial efficacy in the zone of inhibition testing (compound alone): no significant antimicrobial efficacy

basic copper(II) carbonate [BCC]
Zone of Inhibition Diameter (mm) Avg (E. coli, 24 h incubation at 37° C., cellulose binder, average of 3 trials): 12 mm

molybdenum (VI) oxide [molybdenum oxide]
diameter of the ZOI [1]: 19 mm
